Reference: PMC12452389, “Arginine-Derived Cationic Surfactants Containing Phenylalanine and Tryptophan: Evaluation of Antifungal Activity, Biofilm Eradication, Cytotoxicity, and Ecotoxicity” (Journal of Xenobiotics, 2025)
In brackets after ≈: the same amount, converted by molar mass. Several values for one entry are separate records, joined by “and”; a condition that tells them apart may be missing. Equal entries are not always repeated. Structures can show the parent of a compound that is named as a salt. Where two headings read alike, the source gives them in different places.

What was measured:
erythrocytes = assay: Hemolytic activity assay; format: cell-based; details: rabbit erythrocytes
Method: Fresh rabbit blood was obtained from the Animal Facility of the CID-CSIC (Research and Development Center, Spanish National Research Council, Barcelona, Spain). Sample collection was conducted in strict compliance with the bioethical guidelines established under Spanish legislation. Erythrocytes were isolated by centrifugation (3000 rpm/10 min). The supernatant was discarded, and the erythrocytes were washed three times with PBS (phosphate-buffered saline, pH 7.4) and then resuspended in PBS at a concentration of 8 × 10^9 cells/mL. Subsequently, varying volumes of a concentrated surfactant solution were added to Eppendorf tubes containing 25 μL of erythrocyte suspension. PBS was then added to bring the total volume to 1 mL. The samples were gently shaken for 10 min at room temperature and centrifuged at 10,000 rpm for 5 min. Hemolysis was evaluated by measuring the absorbance of the supernatant at 540 nm and comparing it to that of a 100% hemolysis control (erythrocytes treated with distilled water). The HC50, defined as the surfactant concentration that induces 50% hemolysis, was determined from the concentration–response curves: % hemolysis= Abstest compound/AbsBasal haemolytic activity ×100

Daphnia magna = assay: Acute toxicity, immobilization test; format: in vivo; details: Daphnia magna, 48 h
Method: Aquatic toxicity evaluation was performed using Daphnia magna following established protocols. This bioassay method employs laboratory-cultured freshwater microcrustaceans to evaluate surfactant toxicity in aquatic environments. Test organisms were utilized during their initial 24 h life stage to ensure consistency. The endpoint measurement focused on mobility impairment, specifically the loss of swimming capability after gentle stimulation lasting 15 s. Testing conditions included controlled water chemistry parameters: pH maintained at 8.0, calcium-to-magnesium ratio of 4:1, and total hardness of 250 mg/L as CaCO3. All experiments were conducted under dark conditions at 20 °C. The experimental design incorporated ten test concentrations for each surfactant compound, distributed in geometric progression. Each concentration level included 20 Daphnia specimens distributed across four replicate groups of five organisms each. Mobility assessment occurred at 48 h post-exposure, with immobilization percentages plotted against concentration using probability–logarithmic scaling.

Vibrio fischeri = assay: Luminescence reduction test; format: cell-based; details: Aliivibrio fischeri, 0.25 h; Vibrio fischeri bioluminescence, 15 min of exposure; 95% confidence intervals in parentheses
Method: Ecotoxicological assessment of cationic surfactants was conducted using the Vibrio fischeri luminescent bioassay. This method relies on the measurement of decreased bioluminescent output from marine bacteria following contact with potentially toxic substances. Regression analysis was used to determine the concentration of the compound that caused a 50% reduction (EC50) in the amount of light emitted by the bacteria. The stated toxicity statistics given are based on the bacteria being exposed to the ionic liquid solution for 15 min at 15 °C.

[1] = set-up: method as in PMID 36559096; details: conductivity values; cited from earlier work
[2] = Surface tension, pendant drop tensiometer (cmc, γc); format: physicochemical; details: for cmc: from surface tension
Method: Surface tension was measured using a custom-built pendant drop tensiometer, as described in detail in reference. Briefly, a droplet of surfactant solution is formed at the tip of a straight-cut Teflon tube. The image of the droplet is captured using a webcam, and its shape is analyzed by fitting the droplet profile to the Laplace–Young equation [14], To minimize evaporation, all measurements were conducted in a saturated humid atmosphere. The use of this technique is especially well-suited for cationic surfactants because it helps to mitigate complications related to surface adsorption. Critical micelle concentration values (cmc) were determined by finding the intersection of the linear fits before and after the break in the curves.

[3] = system: Candida glabrata ATCC 66032; assay: MIC broth microdilution; format: cell-based; details: for MIC: Nakaseomyces glabratus, read-out: MIC
Method: (§1) The antimicrobial activity of these compounds was assessed against selected yeast and bacterial strains: Candida albicans ATCC 90028 (CA9), Candida rugosa ATCC 10571 (CR), Candida glabrata ATCC 66032 (CG), Candida parapsilosis ATCC 22019 (CP), Candida tropicalis ATCC 7349 (CT), Candida auris ATCC 21092 (CA), and Cyberlindnera jadinii ATCC 60459. Frozen yeast stocks were plated on Sabouraud agar (SBA) and incubated at 30 °C for 24 h. Three to four colonies from each strain were then suspended in RPMI 1640 (Roswell Park Memorial Institute medium, Sigma- Aldrich, Merck, Darmstadt, Germany) to prepare bacterial dispersions of ~1.5 × 10^6 CFU/mL.
(§2) A broth microdilution assay was used to calculate MIC values. Twofold serially diluted compounds in RPMI 1640 medium (from 256 to 2 μg/mL), were dispensed (100 μL per well) into a 96-well plate. Then, 100 μL of a yeast starter culture was added to each well to reach a final inoculum of 7.5 × 10^5 CFU/mL. Wells containing only nutrient broth without the tested surfactant served as growth controls. Microbial growth was assessed by turbidity, which reflects increases in biomass and cell count. […] To confirm the obtained MICs, 20 μL of 0.015% (w/v) resazurin was dispensed to each well and incubated for 3 h at 30 °C. Metabolic activity was evidenced by a color change from blue to pink, thereby confirming the MIC value.

[4] = system: Cyberlindnera jadinii ATCC 60459 (C. jardinii); assay: MIC broth microdilution; format: cell-based; details: for Selectivity Index (HC50/MIC): C. jardini; for MIC: Williopsis jadinii
Method: as §1, §2

[5] = system: Candida rugosa ATCC 10571; assay: MIC broth microdilution; format: cell-based; details: C. rugosa; for MIC: Diutina rugosa, ATCC10571, read-out: MIC
Method: as §1, §2

[6] = system: Candida parapsilosis ATCC 22019; assay: MIC broth microdilution; format: cell-based; details: C. parapsilosis; for MIC: Lodderomyces parapsilosis, ATCC22019, read-out: MIC
Method: as §1, §2

[7] = system: Candida tropicalis ATCC 7349; assay: MIC broth microdilution; format: cell-based; details: C. tropicalis; for MIC: Candida tropicalis, ATCC7349, read-out: MIC
Method: as §1, §2

[8] = system: Candida albicans ATCC 90028; assay: MIC broth microdilution; format: cell-based; details: C. albicans; for MIC: Candida albicans, ATCC90028, read-out: MIC
Method: as §1, §2

Candida auris ATCC 21092 = assay: MIC broth microdilution; format: cell-based; details: C. auris; for MIC: Candidozyma auris, ATCC21092, read-out: MIC
Method: as §1, §2

[9] = ATCC66032, 24 h, C. glabrata, RPMI 1640, 24 h, 30 °C
[10] = ATCC66032, C. glabrata, value in parentheses
[11] = ATCC60459, C. jardinii, value in parentheses, read-out: MIC

Structure (SMILES) | HC50 (erythrocytes; 10 min, room temperature) [µg/mL] | HC50 (erythrocytes; value in parentheses) [µM] | EC50 (Daphnia magna) [µg/mL] | EC50 (Vibrio fischeri) [µg/mL] | cmc Cond [1] [mM] | γc (surface tension at the cmc) [2] [mNm^−1] | cmc [2] [mM] | Selectivity Index (HC50/MIC) ([3]; C. glabrata, Table S2) | MIC [3, 9] [µg/mL] | MIC [3, 10] [µM] | MIC ([5]; RPMI 1640, 24 h, 30 °C) [µg/mL] | MIC ([5]; value in parentheses) [µM] | MIC ([6]; RPMI 1640, 24 h, 30 °C) [µg/mL] | MIC ([6]; value in parentheses) [µM] | MIC ([7]; RPMI 1640, 24 h, 30 °C) [µg/mL] | MIC ([7]; value in parentheses) [µM] | MIC ([8]; RPMI 1640, 24 h, 30 °C) [µg/mL] | MIC ([8]; value in parentheses) [µM] | MIC (Candida auris ATCC 21092; RPMI 1640, 24 h, 30 °C) [µg/mL] | MIC (Candida auris ATCC 21092; value in parentheses) [µM] | further results
CCCCCCCCCCNC(=O)C(CCCNC(=N)N)NC(=O)C(N)Cc1ccccc1 (stereo not shown) [PANHC10] | 215 ± 22 | 404 ± 42 | 22 (≈ 47.8 µM) | 5.6 (≈ 12.2 µM) | 7.2 | 30.6 ± 9.7 | 6.7 | 3.7 | 64 | 120 | 128 | 240 | 64 | 120 | 128 | 240 | 128 | 240 | 256 | 480 | Selectivity Index (HC50/MIC) ([4]; Table S2): 1.6; MIC ([4]; ATCC60459, C. jardinii, RPMI 1640, 24 h, 30 °C, read-out: MIC): 128 µg/mL; MIC [4, 11]: 240 µM; Selectivity Index (HC50/MIC) ([5]; Table S2): 1.6; Selectivity Index (HC50/MIC) ([6]; Table S2): 3.7; Selectivity Index (HC50/MIC) ([7]; Table S2): 1.6; Selectivity Index (HC50/MIC) ([8]; Table S2): 1.6; Selectivity Index (HC50/MIC) (Candida auris ATCC 21092; Table S2): 0.8
CCCCCCCCCCCCNC(=O)C(CCCNC(=N)N)NC(=O)C(N)Cc1ccccc1 (stereo not shown) [PANHC12, phenylalanine-arginine dodecyl amide dihydrochloride] | 26 ± 1.2 | 46 ± 2.2 | 3.4 | 3 | 2.2 | 30.4 ± 2.6 | 1.5 | 0.8 | 32 | 56 | 64 | 112 | 32 | 56 | 32 | 56 | 32 | 56 | 64 | 112 | Selectivity Index (HC50/MIC) ([3]; C. glabrata, Table S1): 0.8; Selectivity Index (HC50/MIC) ([4]; Table S1): 0.8; Selectivity Index (HC50/MIC) ([4]; Table S2): 0.8; MIC ([4]; ATCC60459, 24 h): 32 µg/mL and 88 µM; MIC [4, 11]: 56 µM; Selectivity Index (HC50/MIC) ([5]; Table S1): 0.4; Selectivity Index (HC50/MIC) ([5]; Table S2): 0.4; Selectivity Index (HC50/MIC) ([6]; Table S1): 0.8; Selectivity Index (HC50/MIC) ([6]; Table S2): 0.8; Selectivity Index (HC50/MIC) ([7]; Table S1): 0.8; Selectivity Index (HC50/MIC) ([7]; Table S2): 0.8; Selectivity Index (HC50/MIC) ([8]; Table S1): 0.8; Selectivity Index (HC50/MIC) ([8]; Table S2): 0.8; Selectivity Index (HC50/MIC) (Candida auris ATCC 21092; Table S1): 0.4; Selectivity Index (HC50/MIC) (Candida auris ATCC 21092; Table S2): 0.4
CCCCCCCCCCCCNC(=O)C(N)Cc1ccccc1 (stereo not shown) [PNHC12, phenylalanine dodecyl amide hydrochloride] | 20 ± 0.6 | 55 ± 1.7 |  |  | 1.2 | 26.6 ± 0.8 | 1.2 |  | 32 | 88 | 32 | 88 | 32 | 88 | 32 | 88 | 8 | 22 | 32 | 88 | Selectivity Index (HC50/MIC) ([3]; C. glabrata, Table S1): 0.6; Selectivity Index (HC50/MIC) ([4]; Table S1): 0.6; MIC ([4]; ATCC60459, 24 h): 32 µg/mL and 88 µM; Selectivity Index (HC50/MIC) ([5]; Table S1): 0.6; Selectivity Index (HC50/MIC) ([6]; Table S1): 0.6; Selectivity Index (HC50/MIC) ([7]; Table S1): 0.6; Selectivity Index (HC50/MIC) ([8]; Table S1): 2.5; Selectivity Index (HC50/MIC) (Candida auris ATCC 21092; Table S1): 0.6
